In US6265445A, “Antiarrhythmic compounds” (priority 1997, dated 2001):
Where a name gives a salt, the structure may show the parent alone. Read-outs that look alike come from different tables or passages of the source.

What was measured:
[1] = system: isolated right ventricular trabecule of dog heart; assay: Extracellular electrophysiological measurements: impulse conduction time and effective refractory period; design: species or system mongrel dogs; conditions: Canis lupus familiaris, 10 μM
Description: Right ventricular trabecules were prepared from the heart of mongrel dogs (weighing 5 to 10 kg each). The surviving heart pieces were placed into an organ bath (37° C.) containing modified Tyrode's nutrient medium and excited by point stimulation with a basal frequency of 1 Hz. Extracellular bipolar platinum electrodes were placed on the surface of the preparations, by means of which the propagation of the superficial potentials were registered; thus, the determination of the time of impulse conduction or the rate of impulse conduction, respectively, and the effective refractory period (ERP) became possible. During our experiments,the frequency of stimulation was temporarily varied from 0.5 Hz up to 3 Hz. The tested compounds were directly added to the organ bath after dilution of the stock solution according to the desired final concentration.

[2] = system: right ventricular papillary muscle of dogs; assay: Intracellular microelectrode technique: action potential parameters, ventricular papillary muscle; design: species or system mongrel dogs; conditions: for Trecovery (recovery time constant of Vmax): Gy: kinetics of rapid restoration; for effect on duration of the action potential (in words) / effect on Vmax (in words): concentrations of Table 2; for effect on Vmax (in words): rapid recovery kinetics
Description: The method used is essentially in agreement with the method of Papp et al. [J. Cardiovascular Pharmacol. Ther. 1, 287-296 (1996)].
Right ventricular papillary muscle and Purkinje's fibres were prepared from the hearts of mongrel dogs (weighing 5 to 10 kg each). The preparations were placed into an organ bath (37° C.) containing modified Tyrode's nutrient medium. The preparations were excited by a basal frequency of 1 Hz. During the experiments, the frequency of stimulation was varied under broad limits by a computer-guided stimulator. The intracellular action potentials were registered by using glass capillary microelectrodes filled with 3 N potassium chloride solution (standard intracellular microelectrode techniques). The resting potential (RP), the amplitude of the action potential (APA) as well as the duration of the action potential (APD) were measured by using an IBM 386 compatible computer by means of an own-developed software. The compounds under test were directly added into the organ bath after dilution of the stock solutions according to the final concentrations desired. The effects of the compounds were observed after an incubation time of 30 to 40 minutes.

Cc1ccccc1OCC(C)N(C)CCc1ccc(NS(C)(=O)=O)cc1 (stereo not drawn) [Example 18, N-[4-[2-[N-Methyl-N-[2-(2-methylphenoxy)-1-methylethyl]-amino]ethyl]phenyl]methanesulfonamide hydrochloride]
activation at 10 µM ([1]; 1 Hz, read-out: Prolongation (%) of ERP): 9.9%
activation at 10 µM ([1]; 1 Hz, read-out: Prolongation (%) of impulse conduction time): 18.5%
activation at 10 µM ([1]; 3 Hz, read-out: Prolongation (%) of ERP): 14%
activation at 10 µM ([1]; 3 Hz, read-out: Prolongation (%) of impulse conduction time): 21.7%

Cc1ccccc1OCCN(C)CCc1ccc(NS(C)(=O)=O)cc1.Cl [Example 14, N-[4-[2-[N-Methyl-N-[2-(2-methylphenoxy)ethyl]amino]ethyl]-phenyl]methanesulfonamide hydrochloride]
APA (amplitude of the action potential) ([2]; 5 μM): 114 mV
APD50 (time of 50% repolarization) ([2]; 5 μM): 214 ms
APD90 (time of 90% repolarization) ([2]; 5 μM): 257 ms
RP (resting potential) ([2]; 5 μM): -90 mV
Recovery Ampl ([2]; 5 μM): 58.7 V/s
Recovery Ampl/Plateau ([2]; 5 μM): 0.25
Recovery Plateau ([2]; 5 μM): 231.8 V/s
Vmax (maximum rate of depolarization) ([2]; 5 μM): 232 V/s
Trecovery (recovery time constant of Vmax) ([2]; 5 μM): 111.4 ms
effect on duration of the action potential (in words) [2]: simultaneous prolongation of duration of the action potential (APD)
effect on Vmax (in words) [2]: mexiletine-like inhibition of Vmax

CC(=O)Nc1ccc(CCN(C)C(C)COc2c(C)cccc2C)cc1 (stereo not drawn) [Example 26, N-[4-[2-[N-Methyl-N-[2-(2,6-dimethylphenoxy)-1-methylethyl]amino]ethyl]phenyl]acetamide sesquihydrochloride monohydrate]
APA (amplitude of the action potential) ([2]; 5 μM): 105 mV
APD50 (time of 50% repolarization) ([2]; 5 μM): 200 ms
APD90 (time of 90% repolarization) ([2]; 5 μM): 250 ms
RP (resting potential) ([2]; 5 μM): -80 mV
Recovery Ampl ([2]; 5 μM): 120.9 V/s
Recovery Ampl/Plateau ([2]; 5 μM): 0.62
Recovery Plateau ([2]; 5 μM): 195.9 V/s
Vmax (maximum rate of depolarization) ([2]; 5 μM): 195 V/s
Trecovery (recovery time constant of Vmax) ([2]; 5 μM): 199 ms
effect on duration of the action potential (in words) [2]: simultaneous prolongation of duration of the action potential (APD)
effect on Vmax (in words) [2]: mexiletine-like inhibition of Vmax

CN(CCOc1ccc(NS(C)(=O)=O)cc1)CCc1ccc(NS(C)(=O)=O)cc1 [Dofetilide, N-[4-[2-[N-methyl-N-[2-(4-methanesulfonamidophenoxy)ethyl]-amino]ethyl]phenyl]methanesulfonamide, reference compound]
APA (amplitude of the action potential) ([2]; 1 μM): 96 mV
APD50 (time of 50% repolarization) ([2]; 1 μM): 218 ms
APD90 (time of 90% repolarization) ([2]; 1 μM): 252 ms
RP (resting potential) ([2]; 1 μM): -76 mV
Vmax (maximum rate of depolarization) ([2]; 1 μM): 212 V/s

CNC(=S)Nc1ccc(CCN(C)C(C)COc2c(C)cccc2C)cc1 (stereo not drawn) [Example 27, 1-Methyl-3-[4-[2-[N-methyl-N-[2-(2,6-dimethylphenoxy)-1-methylethyl]amino]ethyl]phenyl]thiourea sesquihydrochloride hemihydrate]
APA (amplitude of the action potential) ([2]; 5 μM): 88 mV
APD50 (time of 50% repolarization) ([2]; 5 μM): 210 ms
APD90 (time of 90% repolarization) ([2]; 5 μM): 250 ms
RP (resting potential) ([2]; 5 μM): -71 mV
Recovery Ampl ([2]; 5 μM): 78 V/s
Recovery Ampl/Plateau ([2]; 5 μM): 0.53
Recovery Plateau ([2]; 5 μM): 147.9 V/s
Vmax (maximum rate of depolarization) ([2]; 5 μM): 117 V/s
Trecovery (recovery time constant of Vmax) ([2]; 5 μM): 161.8 ms
effect on duration of the action potential (in words) [2]: simultaneous prolongation of duration of the action potential (APD)
effect on Vmax (in words) [2]: mexiletine-like inhibition of Vmax
